This is an account of results in patent publication US10543286B2, “Methods for increasing platelet count by inhibiting biliverdin IXβ reductase” (The Research Foundation for The State University of New York, priority 2015, dated 2020).

SMILES strings stand for the structures.

Assay [1] has as its system control or iPSC/BLVRB^S111L cells (NCRM1 iPSCs). Put plainly: TBHP-induced ROS accumulation in genetically-modified iPSCs (CellROX Green, flow cytometry). It counts as cell-based. The conditions noted are these: Homo sapiens, 1 hour at 37° C., read-out: concentration causing ROS accumulation in 50% of cells (EC50). The procedure: FIG. 3i is a bar graph showing ROS expression by genetically-modified NCRM1 iPSCs. About 1×10^5, cells were labeled as in FIG. 2h, and treated (or not) with 200 μM tert-butyl hydroperoxide (TBHP) for 1 hour at 37° C., and ROS-expressing cells were quantitated by flow cytometry after a 60 minute period loading with cell-permeable CellROX Green (500 nM) as indicator (N=6); p-values *<0.05; **<0.01; ***<0.001; ****<0.0001. From left to right, the bars correspond to activity in control cells, activity in cells having BLVRB^WT, and activity in cells having BLVRB^S111L.
Hematopoietic-derived (CD34^+) induced pluripotent stein cells (iPSC) expressing endogenous BLVRB were initially developed as heterozygous models designed to phenocopy zygosity state in subject cohorts. […]
Human CD34^+-derived NCRM1 induced pluripotent stem cells (iPSC) were genetically modified using lentivirus infection (MOI 9) for generation of stable cell lines after puromycin selection (iPSC/BLVRB^S111L, iPSC/BLVRB^WT, iPSC/Control). Oxidation/reduction activity was quantified in vitro using the NADPH-dependent redox coupler resazurin; cells (4×10^4/well) were plated and propagated in mTeSR1 medium and at 24 hours were incubated with resazurin (0.1 v/v) followed by serial spectrofluorimetric detection (530 nm excitation, 590 nm emission) for the reduced resorufin byproduct. […]
On the technique in general: In flow cytometry, cells or beads pass a laser one at a time.

The target of assay [2] is T1, biliverdin IX beta reductase (BLVRB) (Homo sapiens, UniProt P30043).
T1 construct: BLVRBWT and BLVRBS111L open reading frames were PCR-amplified and directionally-cloned into pGEX-KG expression vector; GST (N, cleaved yes); made in house; LB medium, IPTG induction
T1 sequence (P30043 1-206): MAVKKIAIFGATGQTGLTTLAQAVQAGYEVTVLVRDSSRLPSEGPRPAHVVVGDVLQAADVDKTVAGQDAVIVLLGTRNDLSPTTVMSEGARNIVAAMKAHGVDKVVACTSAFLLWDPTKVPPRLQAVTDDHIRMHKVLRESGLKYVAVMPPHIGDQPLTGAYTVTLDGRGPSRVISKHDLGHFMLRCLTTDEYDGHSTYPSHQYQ
Put plainly: BLVRB flavin reductase inhibition assay (FMN/NADPH, absorbance at 340 nm). The note with it: 300 nM recombinant BLVRB, 200 μM FMN, 100 μM NADPH, 100 mM potassium phosphate pH 7.6, 37° C.; read-out: IC50, concentration of inhibitor needed to inhibit the target enzyme by 50% (flavin reductase activity of BLVRB). The format is biochemical. As for the experimental part:
In one embodiment, the agent is a. chemical compound. An example of such a compound is described in Example 7. Inhibition of enzyme activity by the compound was tested in a reaction containing 100 mM potassium phosphate, pH 7.6, 200 μM FMN (flavin mononucleotide), 100 μM NADPH.
Reactions were initiated by the addition of 300 nM recombinant BLVRB. Enzymatic activity was monitored by following the decrease in absorbance at 340 nm which corresponds to the oxidation of NADPH to NADP^+. […] (FIG. 9)

`CC(C)(C)OO` [TBHP, tert-butyl hydroperoxide]: the EC50 in assay [1] was found to be 200 µM.

As for `COc1ccc2nc3cc(Cl)ccc3c(Nc3ccc(O)c(CN4CCN(C)CC4)c3)c2c1` [compound 1301], in assay [2], the IC50 was determined as 30.7 µM.
